Each molecule was assayed against purified recombinantly expressed human SSAO (Homo sapiens (Human), UniProt Q16853) (assay: SSAO enzyme inhibition assay (HRP-coupled hydrogen peroxide detection or 14C-benzaldehyde detection, benzylamine substrate)). Details: SSAO inhibitory activity, human recombinant SSAO, RT.
Assay type: biochemical
Experimental: All primary assays were performed at RT. with purified recombinantly expressed human SSAO. Enzyme was prepared essentially as described in Öhman et al. (Protein Expression and Purification 46 (2006) 321-331). In addition, secondary- and selectivity assays were performed using SSAO prepared from various tissues or purified rat recombinant SSAO. The enzyme activity was assayed with benzylamine as substrate by measuring either benzaldehyde production, using ^14C-labeled substrate, or by utilizing the production of hydrogen peroxide in a horseradish peroxidase (HRP) coupled reaction. Briefly, test compounds were dissolved in dimethyl sulfoxide (DMSO) to a concentration of 10 mM. Dose-response measurements were assayed by either creating 1:10 serial dilutions in DMSO to produce a 7 point curve or by making 1:3 serial dilutions in DMSO to produce 11 point curves.
In a horseradish peroxidase (HRP) coupled reaction, hydrogen peroxide oxidation of 10-acetyl-3,7-dihydroxyphenoxazine produced resorufin, which is a highly fluorescent compound (Zhout and Panchuk-Voloshina. Analytical Biochemistry 253 (1997) 169-174; Amplex® Red Hydrogen Peroxide/peroxidase Assay kit, Invitrogen A22188). Enzyme and compounds in 50 mM sodium phosphate, pH 7.4 were set to pre-incubate in flat-bottomed microtiter plates for approximately 15 min before initiating the reaction by addition of a mixture of HRP, benzylamine and Amplex reagent. Benzylamine concentration was fixed at a concentration corresponding to the Michaelis constant, determined using standard procedures. Fluorescence intensity was then measured at several time points during 1-2 h, exciting at 544 nm and reading the emission at 590 nm. For the human SSAO assay final concentrations of the reagents in the assay wells were: SSAO enzyme 1 ug/ml, benzylamine 100 uM, Amplex reagent 20 uM, HRP 0.1 U/mL and varying concentrations of test compound. The inhibition was measured as % decrease of the signal compared to a control without inhibitor (only diluted DMSO). The background signal from a sample containing no SSAO enzyme was subtracted from all data points. Data was fitted to a four parameter logistic model and IC50 values were calculated using the GraphPad Prism 4 or XLfit 4 programs.
SSAO activity was assayed using 14C-labeled benzylamine and analysed by measuring radioactive benzaldehyde. In a white 96-well optiplate (Packard), 20 uL of diluted test compound was pre-incubated at room temperature with 20 uL SSAO enzyme for approximately 15 min with continuous agitation. All dilutions were made with PBS. The reaction was initiated by adding 20 uL of the benzylamine substrate solution containing [7-14C] Benzylamine hydrochloride (CFA589, GE Healthcare). The plate was incubated for 1 h as above after which the reaction was stopped by acidification (10 uL 1M aq HCl). Then 90 uL Micro Scint-E solution (Perkin-Elmer) was added to each well and the plate was continuously mixed for 15 min. Phase separation occurred instantly and activity was read in a Topcount scintillation counter (Perkin-Elmer). In the final reaction well, the human recombinant SSAO concentration was 10 ug/ml. In order to optimize sensitivity, the substrate concentration was decreased as compared to the HRP coupled assay in order to get a higher fraction of radioactive product. In the human SSAO assay, benzylamine concentration was 40 uM (0.2 uCi/mL). Data was analysed as above.

Chain of purified recombinantly expressed human SSAO (Q16853 29-763): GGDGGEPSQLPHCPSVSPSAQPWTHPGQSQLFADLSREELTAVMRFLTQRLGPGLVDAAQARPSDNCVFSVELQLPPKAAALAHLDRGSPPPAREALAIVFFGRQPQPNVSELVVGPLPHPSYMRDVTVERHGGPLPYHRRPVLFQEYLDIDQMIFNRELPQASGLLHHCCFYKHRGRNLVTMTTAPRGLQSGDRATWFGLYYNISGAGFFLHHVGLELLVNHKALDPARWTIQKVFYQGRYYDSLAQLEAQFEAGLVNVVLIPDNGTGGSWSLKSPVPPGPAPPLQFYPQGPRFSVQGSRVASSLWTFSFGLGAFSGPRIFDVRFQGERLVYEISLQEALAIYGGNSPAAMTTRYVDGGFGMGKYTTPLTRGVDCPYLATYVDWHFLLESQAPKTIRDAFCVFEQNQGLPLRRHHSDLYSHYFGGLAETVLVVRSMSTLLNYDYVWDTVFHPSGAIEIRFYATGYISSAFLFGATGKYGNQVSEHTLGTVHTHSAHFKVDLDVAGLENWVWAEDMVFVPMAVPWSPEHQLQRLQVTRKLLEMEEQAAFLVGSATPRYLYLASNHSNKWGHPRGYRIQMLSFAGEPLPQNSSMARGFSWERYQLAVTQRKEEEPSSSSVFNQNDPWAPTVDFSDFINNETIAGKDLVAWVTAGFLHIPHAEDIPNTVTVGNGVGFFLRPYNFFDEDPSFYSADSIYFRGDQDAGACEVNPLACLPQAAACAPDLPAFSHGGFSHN

| SMILES | IC50 |
| --- | --- |
| Cc1ccc(-n2c(-c3ccc(N4C[C@@H](C)O[C@@H](C)C4)nc3)nc3ccncc32)nc1 [Example 104, (2R,6S)-2,6-Dimethyl-4-{5-[3-(5-methylpyridin-2-yl)-3H-imidazo[4,5-c]pyridin-2-yl]pyridin-2-yl}morpholine] | < 50 nM |
| Cc1ccc(-n2c(-c3cnc(N4CCOCC4)nc3)nc3ccncc32)nc1 [Example 79, 4-{5-[3-(5-Methylpyridin-2-yl)-3H-imidazo[4,5-c]pyridin-2-yl]pyrimidin-2-yl}morpholine] | < 50 nM |
| Cn1nccc1-c1cc2ccncc2n1-c1ccc(Cl)cc1 [Example 134, 5-[1-(4-Chlorophenyl)-1H-pyrrolo[2,3-c]pyridin-2-yl]-1-methyl-1H-pyrazole] | < 50 nM |
| O=c1cc(-c2cc3ccncc3n2-c2ccccc2)ccn1C1CC1 [Example 155, 1-Cyclopropyl-4-{1-phenyl-1H-pyrrolo[2,3-c]pyridin-2-yl}-1,2-dihydropyridin-2-one] | 200 to 1200 nM |
| Clc1ccc(-n2c(-c3ccc(CN4CCOCC4)nc3)cc3ccncc32)cc1 [Example 140, 4-({5-[1-(4-Chlorophenyl)-1H-pyrrolo[2,3-c]pyridin-2-yl]pyridin-2-yl}methyl)morpholine] | < 50 nM |
| O=c1cc(-c2cc3ccncc3n2-c2ccc(Cl)cc2)ccn1C1CC1 [Example 138, 4-[1-(4-Chlorophenyl)-1H-pyrrolo[2,3-c]pyridin-2-yl]-1-cyclopropyl-1,2-dihydropyridin-2-one] | < 50 nM |
| Brc1ccc(-n2c(-c3cnc(N4CCOCC4)nc3)cc3ccncc32)cc1 [Example 133, 4-{5-[1-(4-Bromophenyl)-1H-pyrrolo[2,3-c]pyridin-2-yl]pyrimidin-2-yl}morpholine] | < 50 nM |
| Clc1ccc(-n2c(-c3cncnc3)cc3ccncc32)cc1 [Example 123] | < 50 nM |
| Cc1ccc(-n2c(-c3cnc(N4C[C@@H](C)O[C@@H](C)C4)nc3)nc3ccncc32)cn1 [Example 118, (2R,6S)-2,6-Dimethyl-4-{5-[3-(6-methylpyridin-3-yl)-3H-imidazo[4,5-c]pyridin-2-yl]pyrimidin-2-yl}morpholine] | < 50 nM |
| Clc1ccc(-n2c(-c3ccc(N4CCOCC4)nn3)nc3ccncc32)cc1 [Example 4, 4-{6-[3-(4-Chlorophenyl)-3H-imidazo[4,5-c]pyridin-2-yl]pyridazin-3-yl}morpholine] | < 50 nM |
| Fc1ccccc1-n1c(-c2ccc(N3CCOCC3)nc2)nc2ccncc21 [Example 68, 4-{5-[3-(2-Fluorophenyl)-3H-imidazo[4,5-c]pyridin-2-yl]pyridin-2-yl}morpholine] | < 50 nM |
| Clc1ccc(-n2c(-c3cnccn3)cc3ccncc32)cc1 [Example 124, 2-[1-(4-Chlorophenyl)-1H-pyrrolo[2,3-c]pyridin-2-yl]pyrazine] | < 50 nM |
| Nc1cc(-c2cc3ccncc3n2-c2ccc(Cl)cc2)ccn1 [Example 147, 4-[1-(4-Chlorophenyl)-1H-pyrrolo[2,3-c]pyridin-2-yl]pyridin-2-amine] | < 50 nM |
| Cn1c(-c2cc3ccncc3n2-c2ccc(Cl)cc2)cccc1=O [Example 145, 6-[1-(4-Chlorophenyl)-1H-pyrrolo[2,3-c]pyridin-2-yl]-1-methyl-1,2-dihydropyridin-2-one] | < 50 nM |
| Fc1cc(Cl)ccc1-n1c(-c2cnc(N3CCCC3)nc2)nc2ccncc21 [Example 83, 5-[3-(4-Chloro-2-fluorophenyl)-3H-imidazo[4,5-c]pyridin-2-yl]-2-(pyrrolidin-1-yl)pyrimidine] | < 50 nM |
| Cn1cc(-c2cc3ccncc3n2-c2ccc(Cl)cc2)cn1 [Example 135, 4-[1-(4-Chlorophenyl)-1H-pyrrolo[2,3-c]pyridin-2-yl]-1-methyl-1H-pyrazole] | < 50 nM |

Next, values leading:

| IC50 | SMILES |
| --- | --- |
| < 50 nM | CN(C)c1ncc(-c2nc3ccncc3n2-c2ccc(Cl)cc2F)cn1 [Example 84, 5-[3-(4-Chloro-2-fluorophenyl)-3H-imidazo[4,5-c]pyridin-2-yl]-N,N-dimethylpyrimidin-2-amine] |
| < 50 nM | Cn1ccc(-c2nc3ccncc3n2-c2ccc(Cl)cc2)cc1=O [Example 32, 4-[3-(4-Chlorophenyl)-3H-imidazo[4,5-c]pyridin-2-yl]-1-methyl-1,2-dihydropyridin-2-one] |
| < 50 nM | NC1CCN(c2ccc(-c3nc4ccncc4n3-c3ccc(Cl)cc3)cn2)CC1 [Example 8, 1-{5-[3-(4-Chlorophenyl)-3H-imidazo[4,5-c]pyridin-2-yl]pyridin-2-yl}piperidin-4-amine] |
| < 50 nM | Cc1ccc(-n2c(-c3cnc(N4CCOCC4)cc3C)nc3ccncc32)cn1 [Example 107, 4-{4-Methyl-5-[3-(6-methylpyridin-3-yl)-3H-imidazo[4,5-c]pyridin-2-yl]pyridin-2-yl}morpholine] |
| < 50 nM | Cc1ccc(-n2c(-c3cnc(NCCOC(C)C)nc3)nc3ccncc32)cc1 [Example 39, 5-[3-(4-Methylphenyl)-3H-imidazo[4,5-c]pyridin-2-yl]-N-[2-(propan-2-yloxy)ethyl]pyrimidin-2-amine] |
| < 50 nM | O=c1cc(-c2nc3ccncc3n2-c2ccc(F)cc2)ccn1C1CC1 [Example 115, 1-Cyclopropyl-4-[3-(4-fluorophenyl)-3H-imidazo[4,5-c]pyridin-2-yl]-1,2-dihydropyridin-2-one] |
| 200 to 1200 nM | Cc1cc(N(C)C)ncc1-c1nc2ccncc2n1-c1ccc(F)cc1 [Example 111, 5-[3-(4-Fluorophenyl)-3H-imidazo[4,5-c]pyridin-2-yl]-N,N,4-trimethylpyridin-2-amine] |
| < 50 nM | Cc1cc(N2CCOCC2)ncc1-c1cc2ccncc2n1-c1ccc(Cl)cc1 [Example 129, 4-{5-[1-(4-Chlorophenyl)-1H-pyrrolo[2,3-c]pyridin-2-yl]-4-methylpyridin-2-yl}morpholine; bis(trifluoroacetic acid)] |
| < 50 nM | O=c1cc(N2CCOCC2)[nH]cc1-c1nc2ccncc2n1-c1ccc(F)cc1 [Example 99, 5-[3-(4-Fluorophenyl)-3H-imidazo[4,5-c]pyridin-2-yl]-2-(morpholin-4-yl)-1,4-dihydropyridin-4-one] |
| < 50 nM | Fc1cncc(-c2cc3ccncc3n2-c2ccc(Cl)cc2)c1 [Example 148, 3-[1-(4-Chlorophenyl)-1H-pyrrolo[2,3-c]pyridin-2-yl]-5-fluoropyridine] |
| < 50 nM | Fc1ccc(-n2c(-c3cnc(NCC4CC4)nc3)nc3ccncc32)cc1 [Example 9, N-(Cyclopropylmethyl)-5-[3-(4-fluorophenyl)-3H-imidazo[4,5-c]pyridin-2-yl]pyrimidin-2-amine] |
| 50 to 200 nM | Cc1cc(-n2cccn2)ncc1-c1nc2ccncc2n1-c1ccc(F)cc1 [Example 102, 5-[3-(4-Fluorophenyl)-3H-imidazo[4,5-c]pyridin-2-yl]-4-methyl-2-(1H-pyrazol-1-yl)pyridine] |
| < 50 nM | Fc1ccc(-n2c(-c3ccc(OC4CCOCC4)nc3)nc3ccncc32)cc1 [Example 113, 5-[3-(4-Fluorophenyl)-3H-imidazo[4,5-c]pyridin-2-yl]-2-(oxan-4-yloxy)pyridine] |
| < 50 nM | Clc1ccc(-n2c(-c3cnc(N4CCOCC4)nc3)nc3ccncc32)cc1 [Example 51, 4-{5-[3-(4-Chlorophenyl)-3H-imidazo[4,5-c]pyridin-2-yl]pyrimidin-2-yl}morpholine] |
| < 50 nM | Fc1ccc(-n2c(-c3ccc(N4CCOCC4)nc3)nc3ccncc32)c(Cl)c1 [Example 61, 4-{5-[3-(2-Chloro-4-fluorophenyl)-3H-imidazo[4,5-c]pyridin-2-yl]pyridin-2-yl}morpholine] |
| < 50 nM | Clc1ccc(-n2c(-c3ccc(N4CCOCC4)nc3)nc3ccncc32)cc1 [Example 47, 4-{5-[3-(4-Chlorophenyl)-3H-imidazo[4,5-c]pyridin-2-yl]pyridin-2-yl}morpholine] |
| < 50 nM | COCCCNc1ncc(-c2nc3ccncc3n2-c2ccc(C)cc2)cn1 [Example 37, N-(3-Methoxypropyl)-5-[3-(4-methylphenyl)-3H-imidazo[4,5-c]pyridin-2-yl]pyrimidin-2-amine] |

Source: US9951068B2 (Proximagen Limited, priority 2013, dated 2018)
